Source: publication PMC7160362, “A Polyamine-Based Dinitro-Naphthalimide Conjugate as Substrates for Polyamine Transporters Preferentially Accumulates in Cancer Cells and Minimizes Side Effects in vitro and in vivo” (Frontiers in Chemistry, 2020)
Like-named read-outs stand apart in the source and are kept apart here.

Columns and labels:
[1] = system: Snu-739 cells (hepatic carcinoma); experiment: MTT cytotoxicity assay; type: cell-based; conditions: MTT, 48 h
Experimental: (§1) We incubated hepatic carcinoma (Snu-368 and Snu-739), breast carcinoma (MDA-MB-231 and MCF-7), cisplatin-sensitive lung cancer cells A549, and cisplatin-resistant lung cancer cells A549cisR in 96-well plates in a 5% CO2 atmosphere at 37°C for 24 h (5,000 cells/well). After adding drugs in freshly prepared culture medium (100 μl) and incubating for another 48 h, we added 20 μl MTT (5 mg/ml) and incubated for another 3 h. At last, after the medium was removed, 150 μl DMSO was added. By using a Bio-Rad 680 microplate reader, the absorbance was measured at 570 nm and the IC50 values were calculated using the GraphPad Prism software based on three parallel experiments.
(§2) In vitro assays were firstly conducted to evaluate the inhibitory effect of polyamine-based naphthalimide conjugates 5a-5c, 7a-7b, and 11a-11b on six cancer cell lines, namely, Snu-368 and Sun-739 (hepatoma cell line), MCF-7 (breast carcinoma), MDA-MB-231 (triple negative breast cancer), cisplatin-sensitive lung cancer A549, and resistant A549cisR cells by using traditional MTT tests. Two classic antitumor agents in clinic trials, amonafide and cisplatin, were chosen as the reference drugs (Table 1). The preliminary structure–activity relationship (SAR) can be obtained from the in vitro biological results.

[2] = system: cisplatin-resistant lung cancer cells A549cisR; experiment: MTT cytotoxicity assay; type: cell-based; conditions: for IC50: MTT, 48 h; for RF (resistance factor): IC50 in A549cisR cells/IC50 in A549 cells
Experimental: as §1, §2

[3] = system: cisplatin-sensitive lung cancer cells A549; experiment: MTT cytotoxicity assay; type: cell-based; conditions: MTT, 48 h
Experimental: as §1, §2

[4] = system: MCF-7 cells (breast carcinoma); experiment: MTT cytotoxicity assay; type: cell-based; conditions: MTT, 48 h
Experimental: as §1, §2

[5] = system: MDA-MB-231 cells (triple negative breast cancer); experiment: MTT cytotoxicity assay; type: cell-based; conditions: MTT, 48 h
Experimental: as §1, §2

[6] = system: Snu-368 cells (hepatic carcinoma); experiment: MTT cytotoxicity assay; type: cell-based; conditions: MTT, 48 h
Experimental: as §1, §2

[7] = system: HL-7702 (normal liver cell); experiment: MTT cytotoxicity on matched normal cells; type: cell-based; conditions: for SI (selectivity index), range over Snu-368 and Snu-739: HL-7702 versus Snu-368 and Snu-739; for IC50: normal liver cell, read-out: IC50 HL-7702
Experimental: as §1
The selectivity for cancer cells over normal healthy cells is important for ideal anticancer agents, thereby mitigating undesired toxic side effects associated with chemotherapy. The selectivity of polyamine-based dinitro-naphthalimide conjugates 5a-5c was evaluated by Snu-368 and Snu-739 (hepatic carcinoma), and the matched normal cells HL-7702 (normal liver cell). Moreover, dinitro-naphthalimide conjugates 5a-5c (SI 1.94–7.47) show lower cytotoxicity in normal cells.

HCC xenografts = experiment: In vivo antitumor assay, HCC xenografts; conditions: 5 mg/kg, tail vein, once every day for 7 days
Excerpt: Healthy BALB/c mice (Cat. SCXK 2016-0006, Beijing, China) aged 5 weeks were used for the determination of anticancer activity. We obtained BALB/c mice from the Laboratory Animal Center, Academy of Military Medical Science. They were raised in compliance with the Guide for the Care and Use of Laboratory Animals. The weight of healthy BALB/c mice is 18–22 g.
We firstly injected HCC cells with 1 × 10^6 cells per mouse to determine the anticancer activity. After a week, the tumors increased to 80–120 mm^3. The mice were divided into four groups for 5c (3 mg/kg), 5c (5 mg/kg), the positive control amonafide (5 mg/kg), or the negative control physiological saline. We injected 5c or amonafide via the tail vein every day for a total of seven treatments. Body weight was determined every day. And then the mice were sacrificed after 7 days. The tumor tissues were weighed and the inhibition rate [((average tumor weight of negative control group – average tumor weight of the drug treated or positive control group)/average tumor weight of control group) × 100] was calculated. The organ index [(organ weight/body weight) × 100%] was also counted including heart, liver, kidney, lung, and spleen at the last day. Both 5c and amonafide were dissolved in glucose injection. And they were used immediately after preparation.
The highest FI levels in Snu-739 also indicate a significant therapy for HCC. Therefore, HCC animal models were used to test the in vivo antitumor activities. Mice bearing HCC xenografts were treated with 5c (3 mg/kg), 5c (5 mg/kg), the positive control amonafide (5 mg/kg), and normal saline (negative control) once every day for 7 days by tail vein (Figure 3).

Compound	IC50 ([1]; SNU-739) [µM]	IC50 [2] [µM]	IC50 ([3]; Homo sapiens, A549) [µM]	IC50 ([4]; Homo sapiens, MCF7) [µM]	IC50 ([5]; Homo sapiens, MDA-MB-231) [µM]	IC50 [6] [µM]	RF (resistance factor) [2]	SI (selectivity index) IC50 in HL-7702/IC50 in Snu-368 [7]	SI (selectivity index) IC50 in HL-7702/IC50 in Snu-739 [7]	SI (selectivity index), range over Snu-368 and Snu-739 [7]	IC50 ([7]; Homo sapiens, L02) [µM]	tumor suppression (inhibition rate, tumor weight) (HCC xenografts) [%]	IC50 [1] [µM]	IC50 [3] [µM]	IC50 [4] [µM]	IC50 [5] [µM]	IC50 [7] [µM]
NCCCCNCCCCN1C(=O)c2cc(N)cc3cc(N)cc(c23)C1=O [7b]	> 30	17.3 ± 1.78	> 30	> 30	> 30	> 30											
NCCCNCCCNCCCN1C(=O)c2cc(N)cc3cc(N)cc(c23)C1=O [11a]	9.69 ± 0.98	16.3 ± 1.69	28.3 ± 2.85	14.8 ± 1.45	26 ± 2.56	> 50											
NCCCNCCCCNCCCN1C(=O)c2cc(N)cc3cc(N)cc(c23)C1=O [11b]	23.2 ± 2.36	15.8 ± 1.58	> 30	25.9 ± 2.56	> 30	> 30											
CN(C)CCN1C(=O)c2cccc3cc(N)cc(c23)C1=O [Amonafide, amonafide, reference compound]	13 ± 1.56	11 ± 1.02	6.89 ± 0.68	5.89 ± 0.56	14.9 ± 1.75	14 ± 1.78	1.59	0.83	0.89	0.83–0.89	11.6 ± 1.36	53.27					
N.N.[Cl][Pt][Cl] [Cisplatin, cisplatin, reference compound]		40.4 ± 4.36				16.4 ± 1.26	3.67	0.53	0.86	0.53–0.86			10 ± 1.23	11 ± 0.15	9.6 ± 0.6	16 ± 1.59	8.6 ± 0.2
